Assay results as given in the supplement of paper PMC11451515.

Legend:
Conditions in all cases: 48 h
SEM cells [1] = test: cell viability relative to DMSO control; higher = less cytotoxic
Procedure, shortened: (§1)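 In 1536-well plates, 5 μl of leukemia cells were seeded per well: 500 cells/well for NOMO1 or SEM and 1000 cells/well for P12-Ichikawa. Each line had first been adapted for at least four passages in each medium. Library compounds in DMSO were pin-dosed at 11 threefold concentrations between 47 μM and 0.79 nM, and CellTiter-Glo One luminescence was read after 48 h at 37°C. Viability is a per-plate percentage relative to DMSO wells, with cell-free wells as background.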

NOMO1 [2] = test: as above
Procedure, shortened: as §1

P12-Ichikawa [3] = test: as above
Procedure, shortened: as §1

SEM cells [4] = test: AUC of viability dose-response curve (% viability x log10 dose units); higher = less sensitive
Procedure, shortened: (§2)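 Leukemia cells adapted to each medium (500 or 1000 cells/well, 1536-well plates) were exposed to library compounds in DMSO for 48 h at 37°C at 11 threefold doses, 47 μM to 0.79 nM. Luminescence by CellTiter-Glo One was normalised per plate to DMSO and cell-free wells, then fitted with a four-parameter log-logistic curve on log10 dose. Curves above full viability were scaled and quality-control failures removed before area under the curve was integrated by trapezoidal rule.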

NOMO1 [5] = test: as above
Procedure, shortened: as §2

P12-Ichikawa [6] = test: as above
Procedure, shortened: as §2

COc1cccc2c1C(=O)c1c(O)c3c(c(O)c1C2=O)C[C@@](O)(C(=O)CO)C[C@@H]3O[C@H]1C[C@H](N)[C@H](O)[C@H](C)O1
cell viability [%]
Conditions | NOMO1 [2] | P12-Ichikawa [3] | SEM cells [1]
HPLM + 10% dialyzed FBS, 0.000781 µM | 112 | 115 | 96.4
HPLM + 10% dialyzed FBS, 0.00234 µM | 127 | 114 | 103
HPLM + 10% dialyzed FBS, 0.00702 µM | 108 | 112 | 117
HPLM + 10% dialyzed FBS, 0.0211 µM | 120 | 117 | 124
HPLM + 10% dialyzed FBS, 0.0632 µM | 96.2 | 116 | 105
HPLM + 10% dialyzed FBS, 0.19 µM | 108 | 107 | 92.4
HPLM + 10% dialyzed FBS, 0.569 µM | 116 | 98.6 | 47.5
HPLM + 10% dialyzed FBS, 1.71 µM | 90.2 | 58.2 | 12.9
HPLM + 10% dialyzed FBS, 5.12 µM | 8.77 | 7.45 | 6.97
HPLM + 10% dialyzed FBS, 15.4 µM | 37.4 | 5.63 | 4.92
HPLM + 10% dialyzed FBS, 46.1 µM | 6.99 | 11.9 | 3.63
RPMI 5 mM glucose + 10% FBS, 0.000781 µM | 116 | 113 | –
RPMI 5 mM glucose + 10% FBS, 0.00234 µM | 111 | 116 | –
RPMI 5 mM glucose + 10% FBS, 0.00702 µM | 107 | 119 | –
RPMI 5 mM glucose + 10% FBS, 0.0211 µM | 115 | 114 | –
RPMI 5 mM glucose + 10% FBS, 0.0632 µM | 102 | 113 | –
RPMI 5 mM glucose + 10% FBS, 0.19 µM | 102 | 108 | –
RPMI 5 mM glucose + 10% FBS, 0.569 µM | 108 | 93.8 | –
RPMI 5 mM glucose + 10% FBS, 1.71 µM | 102 | 44.7 | –
RPMI 5 mM glucose + 10% FBS, 5.12 µM | 7.5 | 7.04 | –
RPMI 5 mM glucose + 10% FBS, 15.4 µM | 25.6 | 5.82 | –
RPMI 5 mM glucose + 10% FBS, 46.1 µM | 6.28 | 8.62 | –
RPMI 5 mM glucose + 10% dialyzed FBS, 0.000781 µM | 112 | 109 | 106
RPMI 5 mM glucose + 10% dialyzed FBS, 0.00234 µM | 116 | 114 | 100
RPMI 5 mM glucose + 10% dialyzed FBS, 0.00702 µM | 105 | 108 | 108
RPMI 5 mM glucose + 10% dialyzed FBS, 0.0211 µM | 104 | 107 | 92
RPMI 5 mM glucose + 10% dialyzed FBS, 0.0632 µM | 107 | 117 | 101
RPMI 5 mM glucose + 10% dialyzed FBS, 0.19 µM | 110 | 106 | 69.9
RPMI 5 mM glucose + 10% dialyzed FBS, 0.569 µM | 100 | 92.2 | 40.1
RPMI 5 mM glucose + 10% dialyzed FBS, 1.71 µM | 104 | 67 | 9.78
RPMI 5 mM glucose + 10% dialyzed FBS, 5.12 µM | 8.85 | 7.81 | 5.67
RPMI 5 mM glucose + 10% dialyzed FBS, 15.4 µM | 34.3 | 7.58 | 3.74
RPMI 5 mM glucose + 10% dialyzed FBS, 46.1 µM | 5.09 | 13 | 2.82

AUC of viability dose-response curve
Conditions | NOMO1 [5] | P12-Ichikawa [6] | SEM cells [4]
HPLM + 10% dialyzed FBS | 367 | 338 | 286
RPMI 5 mM glucose + 10% FBS | 369 | 326 | 268
RPMI 5 mM glucose + 10% dialyzed FBS | 374 | 346 | 271

CC(N[C@H]1CCCC[C@@H]1NC(=O)c1ccc(Cl)cc1)c1cccc2ccccc12 (some centres not stated)
cell viability [%]
Conditions | NOMO1 [2] | P12-Ichikawa [3] | SEM cells [1]
HPLM + 10% dialyzed FBS, 0.000781 µM | 117 | 107 | 98.2
HPLM + 10% dialyzed FBS, 0.00234 µM | 131 | 109 | 105
HPLM + 10% dialyzed FBS, 0.00702 µM | 112 | 114 | 110
HPLM + 10% dialyzed FBS, 0.0211 µM | 127 | 110 | 114
HPLM + 10% dialyzed FBS, 0.0632 µM | 113 | 113 | 111
HPLM + 10% dialyzed FBS, 0.19 µM | 110 | 115 | 112
HPLM + 10% dialyzed FBS, 0.569 µM | 139 | 111 | 101
HPLM + 10% dialyzed FBS, 1.71 µM | 86.3 | 116 | 115
HPLM + 10% dialyzed FBS, 5.12 µM | 83 | 114 | 112
HPLM + 10% dialyzed FBS, 15.4 µM | 28 | 39.7 | 118
HPLM + 10% dialyzed FBS, 46.1 µM | 29.5 | 28.1 | 119
RPMI 5 mM glucose + 10% FBS, 0.000781 µM | 100 | 117 | 92.2
RPMI 5 mM glucose + 10% FBS, 0.00234 µM | 107 | 119 | 102
RPMI 5 mM glucose + 10% FBS, 0.00702 µM | 120 | 113 | 109
RPMI 5 mM glucose + 10% FBS, 0.0211 µM | 114 | 118 | 120
RPMI 5 mM glucose + 10% FBS, 0.0632 µM | 110 | 117 | 107
RPMI 5 mM glucose + 10% FBS, 0.19 µM | 113 | 115 | 108
RPMI 5 mM glucose + 10% FBS, 0.569 µM | 114 | 119 | 121
RPMI 5 mM glucose + 10% FBS, 1.71 µM | 102 | 111 | 113
RPMI 5 mM glucose + 10% FBS, 5.12 µM | 105 | 102 | 119
RPMI 5 mM glucose + 10% FBS, 15.4 µM | 19.9 | 30.9 | 138
RPMI 5 mM glucose + 10% FBS, 46.1 µM | 18.2 | 35.2 | 110
RPMI 5 mM glucose + 10% dialyzed FBS, 0.000781 µM | 102 | 105 | 120
RPMI 5 mM glucose + 10% dialyzed FBS, 0.00234 µM | 108 | 105 | 112
RPMI 5 mM glucose + 10% dialyzed FBS, 0.00702 µM | 113 | 109 | 109
RPMI 5 mM glucose + 10% dialyzed FBS, 0.0211 µM | 112 | 104 | 114
RPMI 5 mM glucose + 10% dialyzed FBS, 0.0632 µM | 111 | 102 | 116
RPMI 5 mM glucose + 10% dialyzed FBS, 0.19 µM | 117 | 113 | 114
RPMI 5 mM glucose + 10% dialyzed FBS, 0.569 µM | 103 | 108 | 125
RPMI 5 mM glucose + 10% dialyzed FBS, 1.71 µM | 103 | 110 | 127
RPMI 5 mM glucose + 10% dialyzed FBS, 5.12 µM | 107 | 106 | 115
RPMI 5 mM glucose + 10% dialyzed FBS, 15.4 µM | 25.4 | 30.6 | 133
RPMI 5 mM glucose + 10% dialyzed FBS, 46.1 µM | 24.2 | 28.7 | 121

AUC of viability dose-response curve
Conditions | NOMO1 [5] | P12-Ichikawa [6] | SEM cells [4]
HPLM + 10% dialyzed FBS | 398 | 428 | 449
RPMI 5 mM glucose + 10% FBS | 416 | 420 | 449
RPMI 5 mM glucose + 10% dialyzed FBS | 421 | 425 | 455

COc1ccc2c(c1)[C@]13CCCCC1C(C2)N(C)CC3 (some centres not stated)
cell viability [%]
Conditions | NOMO1 [2] | P12-Ichikawa [3] | SEM cells [1]
HPLM + 10% dialyzed FBS, 0.000781 µM | – | 107 | 102
HPLM + 10% dialyzed FBS, 0.00234 µM | – | 118 | 116
HPLM + 10% dialyzed FBS, 0.00702 µM | – | 114 | 113
HPLM + 10% dialyzed FBS, 0.0211 µM | – | 116 | 106
HPLM + 10% dialyzed FBS, 0.0632 µM | – | 116 | 116
HPLM + 10% dialyzed FBS, 0.19 µM | – | 122 | 112
HPLM + 10% dialyzed FBS, 0.569 µM | – | 124 | 103
HPLM + 10% dialyzed FBS, 1.71 µM | – | 126 | 100
HPLM + 10% dialyzed FBS, 5.12 µM | – | 113 | 128
HPLM + 10% dialyzed FBS, 15.4 µM | – | 127 | 111
HPLM + 10% dialyzed FBS, 46.1 µM | – | 117 | 129
RPMI 5 mM glucose + 10% FBS, 0.000781 µM | 104 | 111 | 106
RPMI 5 mM glucose + 10% FBS, 0.00234 µM | 117 | 127 | 105
RPMI 5 mM glucose + 10% FBS, 0.00702 µM | 107 | 119 | 115
RPMI 5 mM glucose + 10% FBS, 0.0211 µM | 121 | 124 | 115
RPMI 5 mM glucose + 10% FBS, 0.0632 µM | 118 | 128 | 111
RPMI 5 mM glucose + 10% FBS, 0.19 µM | 108 | 129 | 126
RPMI 5 mM glucose + 10% FBS, 0.569 µM | 109 | 134 | 110
RPMI 5 mM glucose + 10% FBS, 1.71 µM | 111 | 118 | 113
RPMI 5 mM glucose + 10% FBS, 5.12 µM | 121 | 133 | 126
RPMI 5 mM glucose + 10% FBS, 15.4 µM | 90.3 | 128 | 126
RPMI 5 mM glucose + 10% FBS, 46.1 µM | 101 | 107 | 123
RPMI 5 mM glucose + 10% dialyzed FBS, 0.000781 µM | 111 | 106 | 101
RPMI 5 mM glucose + 10% dialyzed FBS, 0.00234 µM | 114 | 112 | 103
RPMI 5 mM glucose + 10% dialyzed FBS, 0.00702 µM | 116 | 119 | 106
RPMI 5 mM glucose + 10% dialyzed FBS, 0.0211 µM | 119 | 120 | 114
RPMI 5 mM glucose + 10% dialyzed FBS, 0.0632 µM | 135 | 121 | 108
RPMI 5 mM glucose + 10% dialyzed FBS, 0.19 µM | 130 | 117 | 114
RPMI 5 mM glucose + 10% dialyzed FBS, 0.569 µM | 114 | 126 | 118
RPMI 5 mM glucose + 10% dialyzed FBS, 1.71 µM | 132 | 122 | 109
RPMI 5 mM glucose + 10% dialyzed FBS, 5.12 µM | 115 | 119 | 117
RPMI 5 mM glucose + 10% dialyzed FBS, 15.4 µM | 118 | 122 | 108
RPMI 5 mM glucose + 10% dialyzed FBS, 46.1 µM | 84.2 | 20.9 | 114

AUC of viability dose-response curve
Conditions | NOMO1 [5] | P12-Ichikawa [6] | SEM cells [4]
HPLM + 10% dialyzed FBS | 468 | 467 | 435
RPMI 5 mM glucose + 10% FBS | 466 | 474 | 443
RPMI 5 mM glucose + 10% dialyzed FBS | 469 | 457 | 467
